For 20 compounds, T/C results are on record in PubChem BioAssay AID200 (DTP/NCI, 2004).

“And” between values parts separate entries of the source, which are not always exact repeats. Identical values can stand only once. Toxic doses and inconclusive results are not listed. Where a SMILES comes first, the peptide text is derived from it. The star is where a group is joined. Boc = CC(C)(C)OC(=O)*

This test deals with B6C3F1 mice, B16 melanoma ip, median survival T/C. In words: NCI In Vivo Anticancer Drug Screen. Data for tumor model B16 Melanoma (intraperitoneal) in B6C3F1 mice. Conditions: endpoint: median survival time, schedule: Q01DX009 (ip), higher = longer survival. A digest of the protocol:
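Mice bearing transplanted tumor were dosed with compound or vehicle, and survival was recorded. Activity is expressed as the treated-group measurement (T) divided by the vehicle control measurement (C).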

[1] abbreviates: dose: 50.0 mg/kg/injection, vehicle: saline with Tween-80.
The mark [2] stands for this setting: dose: 100.0 mg/kg/injection, vehicle: saline with Tween-80.
[3] abbreviates: dose: 12.5 mg/kg/injection, vehicle: Klucel (hydroxypropylcellulose) (HPC).
[4] abbreviates: dose: 25.0 mg/kg/injection, vehicle: Klucel (hydroxypropylcellulose) (HPC).
The mark [5] stands for this setting: dose: 50.0 mg/kg/injection, vehicle: Klucel (hydroxypropylcellulose) (HPC).
Where [6] appears, read: dose: 100.0 mg/kg/injection, vehicle: Klucel (hydroxypropylcellulose) (HPC).
[7] abbreviates: dose: 200.0 mg/kg/injection, vehicle: Klucel (hydroxypropylcellulose) (HPC).
The mark [8] stands for this setting: dose: 400.0 mg/kg/injection, vehicle: Klucel (hydroxypropylcellulose) (HPC).
Where [9] appears, read: dose: 12.5 mg/kg/injection, vehicle: saline with Tween-80.
[10] abbreviates: dose: 25.0 mg/kg/injection, vehicle: saline with Tween-80.
[11] abbreviates: dose: 200.0 mg/kg/injection, vehicle: saline with Tween-80.
Setting [12] is: dose: 12.5 mg/kg/injection, vehicle: water.
Where [13] appears, read: dose: 12.5 mg/kg/injection, vehicle: saline.
Where [14] appears, read: dose: 25.0 mg/kg/injection, vehicle: saline.
Where [15] appears, read: dose: 50.0 mg/kg/injection, vehicle: saline.

In the case of `COc1ccc(C(=O)CC2CCCC(CC(=O)c3ccc(OC)cc3)N2C)cc1` (stereo not drawn), the T/C is 103 % of control under setting [1] and 101 % of control under setting [2].

Regarding `O=C1CC2(C(=O)N1CN1CCCCC1)c1ccccc1-c1ccccc12`, the T/C under setting [3] was 91 % of control; the T/C under setting [4] is 95 % of control; the T/C under setting [5] is 95 % of control; the T/C under setting [6] is 110 % of control; the T/C under setting [7] was 92 % of control.

With `O=C(NC(Cc1cn(Cc2ccccc2)cn1)C(=O)O)OCC1c2ccccc2-c2ccccc21` (stereo not drawn), the T/C is, setting by setting: under setting [6], 111 % of control; under setting [7], 103 % of control; under setting [8], 115 % of control.

Regarding `CCOc1ccc(NC(=O)C(C(C)N2CCCCC2)N2CCCCC2)cc1` (stereo not drawn), the T/C runs as follows: under setting [9], 102 % of control; under setting [10], 94 % of control; under setting [1], 93 % of control.

With `S=C(NCNC(=S)c1ccncc1)c1ccncc1`, the T/C runs as follows: under setting [1], 102 % of control; under setting [2], 91 % of control; under setting [11], 100 % of control; (dose: 400.0 mg/kg/injection, vehicle: saline with Tween-80) 104 % of control.

Consider `CCN1CSC(=S)N(CC)C1`, for which the T/C by setting is: under setting [10], 94 % of control; under setting [1], 94 % of control; under setting [2], 91 % of control.

`O=C(NC(Cc1cccc(F)c1)C(=O)O)c1ccccc1` (stereo not drawn): the T/C is 104 % of control (dose: 6.25 mg/kg/injection, vehicle: other); 110 % of control (dose: 12.5 mg/kg/injection, vehicle: other); 99 % of control (dose: 25.0 mg/kg/injection, vehicle: other); 88 % of control (dose: 50.0 mg/kg/injection, vehicle: other).

Turning to `CSCCC(NC(=O)C(CC(C)C)NC(=O)OC(C)(C)C)C(N)=O` (stereo not drawn) (Boc-Leu-Met-NH2; configuration not given here), the T/C is, setting by setting: under setting [5], 86 % of control; under setting [6], 98 % of control and 102 % of control; under setting [7], 97 % of control and 100 % of control; under setting [8], 101 % of control.

In the case of `[Cl][Hg][Cl]`, the T/C is 105 % of control (dose: 0.05 mg/kg/injection, vehicle: saline); 96 % of control (dose: 0.06 mg/kg/injection, vehicle: saline); 97 % of control (dose: 0.1 mg/kg/injection, vehicle: saline); 104 % of control (dose: 0.12 mg/kg/injection, vehicle: saline); 100 % of control (dose: 0.2 mg/kg/injection, vehicle: saline); 104 % of control (dose: 0.25 mg/kg/injection, vehicle: saline). Besides, the T/C is 102 % of control (dose: 0.4 mg/kg/injection, vehicle: saline); 86 % of control (dose: 0.5 mg/kg/injection, vehicle: saline); 86 % of control (dose: 0.8 mg/kg/injection, vehicle: saline).

Turning to `CC(=O)NC(C=O)OCC=O` (stereo not drawn), the T/C by setting is: (dose: 6.25 mg/kg/injection, vehicle: water) 112 % of control; under setting [12], 111 % of control and 106 % of control; (dose: 25.0 mg/kg/injection, vehicle: water) 109 % of control and 105 % of control; (dose: 50.0 mg/kg/injection, vehicle: water) 103 % of control and 106 % of control; (dose: 100.0 mg/kg/injection, vehicle: water) 111 % of control and 117 % of control; (dose: 200.0 mg/kg/injection, vehicle: water) 112 % of control.

On to `CCN(CC)CCn1[nH]c2c3ccc(=O)cc3sc3c(NCCN)ccc1c32`, for which the T/C by setting is: (dose: 1.56 mg/kg/injection, vehicle: water) 161 % of control; (dose: 1.7 mg/kg/injection, vehicle: water) 189 % of control; (dose: 2.7 mg/kg/injection, vehicle: water) 225 % of control; (dose: 4.5 mg/kg/injection, vehicle: water) 270 % of control; (dose: 7.5 mg/kg/injection, vehicle: water) 281 % of control; under setting [12], 161 % of control and 264 % of control.

As for `O=S1(=O)CCCO1`, the T/C runs as follows: under setting [13], 95 % of control; under setting [14], 99 % of control; under setting [15], 94 % of control.

Take `CC1OC2CC(O)C1(O)C1=C2C(O)=C(C(N)=O)C(=N)C1=O` (stereo not drawn): the T/C runs as follows: (dose: 0.31 mg/kg/injection, vehicle: saline) 106 % of control; (dose: 0.62 mg/kg/injection, vehicle: saline) 98 % of control; (dose: 1.25 mg/kg/injection, vehicle: saline) 104 % of control; (dose: 2.5 mg/kg/injection, vehicle: saline) 98 % of control; (dose: 5.0 mg/kg/injection, vehicle: saline) 102 % of control.

In the case of `CCC(C)c1cnc(CC(C)C)c(=O)n1O` (stereo not drawn), the T/C is, setting by setting: under setting [1], 98 % of control; under setting [2], 87 % of control.

Turning to `CC1(C)COCN1COCCOCN1COCC1(C)C`, the T/C runs as follows: (dose: 6.25 mg/kg/injection, vehicle: saline) 94 % of control; under setting [13], 96 % of control; under setting [14], 101 % of control; under setting [15], 115 % of control; (dose: 100.0 mg/kg/injection, vehicle: saline) 113 % of control.

With `Cc1cc(NCCCN(C)C)c2ccc3c(ccc4c(NCCCN(C)C)cc(C)nc43)c2n1`, the T/C reads like this: (dose: 0.19 mg/kg/injection, vehicle: saline) 114 % of control; (dose: 0.39 mg/kg/injection, vehicle: saline) 102 % of control; (dose: 0.78 mg/kg/injection, vehicle: saline) 91 % of control; (dose: 1.56 mg/kg/injection, vehicle: saline) 106 % of control; (dose: 3.12 mg/kg/injection, vehicle: saline) 113 % of control and 102 % of control.

As for `CCC1CN2CCC3(C(=O)Nc4ccccc43)C2CC1/C(=C/OC)C(=O)OC` (stereo not drawn), the T/C by setting is: (dose: 6.25 mg/kg/injection, vehicle: saline with Tween-80) 90 % of control; under setting [9], 108 % of control; under setting [10], 93 % of control; under setting [1], 93 % of control.

Turning to `C/C=C/C=C1/OC(C)=C(C(C)=O)C1=O`, the T/C by setting is: under setting [9], 99 % of control; under setting [10], 99 % of control; under setting [1], 106 % of control; under setting [2], 98 % of control; under setting [11], 109 % of control.

For the compound `CCN(CC)c1ccc2cc(-c3nc4ccccc4n3C)c(=O)oc2c1`, the T/C (dose: 6.25 mg/kg/injection, vehicle: Klucel (hydroxypropylcellulose) (HPC)) is 94 % of control and 101 % of control; the T/C under setting [3] is 102 % of control and 106 % of control; the T/C under setting [4] is 108 % of control and 111 % of control.

As for `[Cl][Pt+2][Cl].[NH-]c1ccc(Cl)cc1[NH-]`, the T/C (dose: 2.5 mg/kg/injection, vehicle: saline with Tween-80) is 116 % of control and the T/C (dose: 20.0 mg/kg/injection, vehicle: saline with Tween-80) is 168 % of control.
